Experiments:
[1] = target: T1, Peroxisome proliferator-activated receptor gamma (Mus musculus, UniProt P37238); test: Displacement of [3H]rosiglitazone from mouse PPARgamma receptor by scintillation proximation assay
T1 sequence (P37238 whole entry): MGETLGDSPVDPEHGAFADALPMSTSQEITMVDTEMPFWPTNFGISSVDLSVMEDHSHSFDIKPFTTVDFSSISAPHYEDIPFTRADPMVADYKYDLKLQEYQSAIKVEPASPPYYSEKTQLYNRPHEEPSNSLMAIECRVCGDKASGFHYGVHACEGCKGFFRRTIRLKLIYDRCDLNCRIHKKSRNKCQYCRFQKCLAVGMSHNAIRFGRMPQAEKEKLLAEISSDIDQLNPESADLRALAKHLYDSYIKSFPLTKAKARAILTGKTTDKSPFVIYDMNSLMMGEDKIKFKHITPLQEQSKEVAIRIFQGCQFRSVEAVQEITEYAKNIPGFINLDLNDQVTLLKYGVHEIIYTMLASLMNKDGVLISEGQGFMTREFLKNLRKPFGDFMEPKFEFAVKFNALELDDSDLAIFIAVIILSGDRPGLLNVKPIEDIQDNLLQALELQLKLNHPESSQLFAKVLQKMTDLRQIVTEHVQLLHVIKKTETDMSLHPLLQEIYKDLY

[2] = target: T2, Peroxisome proliferator-activated receptor gamma (Mus musculus) (UniProt P37238); test: Displacement of [3H]rosiglitazone from mouse PPARgamma receptor at 10 uM by scintillation proximation assay
T2 sequence (whole entry): T1 sequence (P37238 whole entry)

SMILES | IC50 [1] [nM] | inhibition [2] [%]
O=C1NC(=O)C(=Cc2ccc(OCCN3c4ccccc4Oc4ccccc43)cc2)C(=O)N1 | 500 | 
Cc1ccc(OCCOc2cccc(C=C3C(=O)NC(=O)NC3=O)c2)cc1 | 800 | 
Cc1ccc(OCCOc2ccc(C=C3C(=O)NC(=O)NC3=O)cc2)cc1 |  | < 20
N#Cc1ccc(OCCCOc2ccc(C=C3C(=O)NC(=O)NC3=O)cc2)cc1 |  | < 20
O=C1NC(=O)C(=Cc2ccc(OCCOc3ccc(Br)cc3)cc2)C(=O)N1 |  | < 20
CC(C)c1ccc(OCCCOc2ccc(C=C3C(=O)NC(=O)NC3=O)cc2)cc1 |  | < 20
O=C1NC(=O)C(=Cc2ccc(Oc3ccccc3)cc2)C(=O)N1 | 100 | 
O=C1NC(=O)C(=Cc2ccc(OCCOc3ccc([N+](=O)[O-])cc3)cc2)C(=O)N1 | 2500 | 
O=C1NC(=O)C(=Cc2ccc(OCCOc3ccc4ccccc4c3)cc2)C(=O)N1 |  | < 20
COc1ccc(OCCOc2ccc(C=C3C(=O)NC(=O)NC3=O)cc2)cc1 | 200 | 
O=C1NC(=O)C(=Cc2ccc(OCCn3ccc4cccnc43)cc2)C(=O)N1 |  | < 20
O=C1NC(=O)C(=Cc2ccc(OCCn3c4ccccc4c4ccccc43)cc2)C(=O)N1 |  | < 20
O=C1NC(=O)C(=Cc2ccc(OCCOc3ccccn3)cc2)C(=O)N1 |  | < 20
N#Cc1ccc(OCCOc2ccc(C=C3C(=O)NC(=O)NC3=O)cc2)cc1 | 200 | 
